In ChEMBL document CHEMBL1201862, “PubChem BioAssay data set” (2004):
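Method: 48-hour compound exposure of cells in 96-well plates, five concentrations, linear interpolation of endpoints. Here, GI50 denotes the concentration required for 50% inhibition of growth.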 The source made the active and inactive calls. No stated cut-off is given here; in the data, active = GI50 up to about 1.1 µM and inactive = higher.

Experiments:
Assay in all cases: growth of human tumour cells (NCI), 48 h
[1] = system: HL-60
[2] = system: HT-29
[3] = system: SR
[4] = system: NCI/ADR-RES
[5] = system: M14
[6] = system: 786-0
[7] = system: CCRF-CEM
[8] = system: K562
[9] = system: OVCAR-8
[10] = system: A498
[11] = system: HCT-116
[12] = system: OVCAR-4
[13] = system: CAKI-1
[14] = system: HOP-62
[15] = system: SK-MEL-2
[16] = system: UACC-62
[17] = system: NCI-H23
[18] = system: HCT-15
[19] = system: RXF 393
[20] = system: NCI-H460
[21] = system: HCC 2998
[22] = system: COLO 205
[23] = system: A549
[24] = system: OVCAR-5
[25] = system: T47D
[26] = system: UACC-257
[27] = system: SK-OV-3
[28] = system: Hs-578T
[29] = system: IGROV-1
[30] = system: MDA-MB-231
[31] = system: PC-3
[32] = system: NCI-H522
[33] = system: MCF7
[34] = system: BT-549
[35] = system: SN12C
[36] = system: EKVX
[37] = system: SF-268
[38] = system: SF-295
[39] = system: MDA-MB-435
[40] = system: SK-MEL-5
[41] = system: OVCAR-3
[42] = system: TK-10
[43] = system: U-251
[44] = system: Malme-3M
[45] = system: MOLT-4
[46] = system: NCI-H226
[47] = system: SF-539
[48] = system: DU-145
[49] = system: KM12
[50] = system: ACHN
[51] = system: UO-31
[52] = system: SNB-19
[53] = system: SK-MEL-28
[54] = system: SNB-75
[55] = system: SW-620
[56] = system: HOP-92
[57] = system: LOX IMVI
[58] = system: RPMI-8226

Cc1ccc(-c2n[nH]c(=O)n2N2C(=O)C=CC2=O)cc1
GI50 [1]: > 100 µM (inactive) | GI50 [2]: > 100 µM (inactive) | GI50 [3]: > 100 µM (inactive) | GI50 [4]: > 100 µM (inactive) | GI50 [5]: > 100 µM (inactive) | GI50 [6]: > 100 µM (inactive) | GI50 [7]: > 100 µM (inactive) | GI50 [8]: > 100 µM (inactive) | GI50 [9]: > 100 µM (inactive) | GI50 [10]: > 100 µM (inactive) | GI50 [11]: > 100 µM (inactive) | GI50 [12]: > 100 µM (inactive) | GI50 [13]: > 100 µM (inactive) | GI50 [14]: > 100 µM (inactive) | GI50 [15]: > 100 µM (inactive) | GI50 [16]: > 100 µM (inactive) | GI50 [17]: > 100 µM (inactive) | GI50 [18]: > 100 µM | GI50 [19]: > 100 µM (inactive) | GI50 [20]: > 100 µM (inactive) | GI50 [21]: > 100 µM (inactive) | GI50 [22]: > 100 µM (inactive) | GI50 [23]: > 100 µM (inactive) | GI50 [24]: > 100 µM (inactive) | GI50 [25]: > 100 µM (inactive) | GI50 [26]: > 100 µM (inactive) | GI50 [27]: > 100 µM (inactive) | GI50 [28]: > 100 µM (inactive) | GI50 [29]: > 100 µM (inactive) | GI50 [30]: > 100 µM (inactive) | GI50 [31]: > 100 µM (inactive) | GI50 [32]: > 100 µM (inactive) | GI50 [33]: > 100 µM (inactive) | GI50 [34]: > 100 µM (inactive) | GI50 [35]: > 100 µM (inactive) | GI50 [36]: > 100 µM (inactive) | GI50 [37]: > 100 µM (inactive) | GI50 [38]: > 100 µM (inactive) | GI50 [39]: > 100 µM (inactive) | GI50 [40]: > 100 µM (inactive) | GI50 [41]: > 100 µM (inactive) | GI50 [42]: > 100 µM (inactive) | GI50 [43]: > 100 µM (inactive) | GI50 [44]: > 100 µM (inactive) | GI50 [45]: > 100 µM (inactive) | GI50 [46]: > 100 µM (inactive) | GI50 [47]: > 100 µM (inactive) | GI50 [48]: > 100 µM (inactive)

N#CCCN(CCN(C(=O)Nc1ccccc1)c1ccccc1)C(=O)Nc1ccccc1
GI50 [1]: 13 µM (inactive) | GI50 [2]: > 100 µM (inactive) | GI50 [3]: 42 µM (inactive) | GI50 [4]: 28.6 µM (inactive) | GI50 [49]: 48.3 µM (inactive) | GI50 [5]: 77.6 µM (inactive) | GI50 [6]: > 100 µM (inactive) | GI50 [7]: 17.7 µM (inactive) | GI50 [8]: 29.9 µM (inactive) | GI50 [9]: 64.3 µM (inactive) | GI50 [10]: > 100 µM (inactive) | GI50 [11]: 54.6 µM (inactive) | GI50 [50]: 52.1 µM (inactive) | GI50 [12]: > 100 µM (inactive) | GI50 [13]: > 43 µM (inactive) | GI50 [14]: > 100 µM (inactive) | GI50 [15]: > 100 µM (inactive) | GI50 [51]: 31.2 µM (inactive) | GI50 [16]: 65 µM (inactive) | GI50 [17]: > 60.1 µM (inactive) | GI50 [52]: > 57.3 µM (inactive) | GI50 [18]: > 81.5 µM | GI50 [19]: > 45.3 µM (inactive) | GI50 [20]: > 67.5 µM (inactive) | GI50 [21]: > 80.7 µM (inactive) | GI50 [22]: 53.5 µM (inactive) | GI50 [23]: 58.2 µM (inactive) | GI50 [24]: > 100 µM (inactive) | GI50 [53]: > 91.6 µM (inactive) | GI50 [25]: > 35.1 µM (inactive) | GI50 [26]: > 100 µM (inactive) | GI50 [27]: > 100 µM (inactive) | GI50 [29]: 76.7 µM (inactive) | GI50 [30]: > 100 µM (inactive) | GI50 [31]: 43.3 µM (inactive) | GI50 [54]: > 100 µM (inactive) | GI50 [32]: > 55.3 µM (inactive) | GI50 [33]: > 71.1 µM (inactive) | GI50 [34]: 42.6 µM (inactive) | GI50 [36]: 69.5 µM (inactive) | GI50 [37]: > 100 µM (inactive) | GI50 [38]: 62.5 µM (inactive) | GI50 [39]: 63.8 µM (inactive) | GI50 [40]: 60.7 µM (inactive) | GI50 [41]: > 100 µM (inactive) | GI50 [42]: 61.8 µM (inactive) | GI50 [43]: 65.6 µM (inactive) | GI50 [55]: > 100 µM (inactive) | GI50 [44]: > 100 µM (inactive) | GI50 [56]: > 63 µM (inactive) | GI50 [45]: 28.8 µM (inactive) | GI50 [46]: 79.4 µM (inactive) | GI50 [47]: > 65 µM (inactive) | GI50 [57]: 49.8 µM (inactive) | GI50 [58]: 17.6 µM (inactive)
